Laboratory results taken from US12097204B2, “Solid pharmaceutical composition containing 1,3,5-triazine derivative or salt thereof” (CHIA TAI TIANQING PHARMACEUTICAL GROUP CO., LTD., priority 2018, dated 2024).

Test: Solubility of the compound of formula I
Type: physicochemical

CC(C)(C)ONc1nc(Nc2ccnc(C(F)(F)F)c2)nc(-c2cccc(C(F)(F)F)n2)n1 [compound of formula I, 4-(tert-butoxyamino)-6-(6-(trifluoromethyl)pyridin-2-yl)-N-(2-(trifluoromethyl)pyridin-4-yl)-1,3,5-triazin-2-amine]
Solubility in either acidic or basic condition (acidic or basic condition): poor solubility
Solubility in water (water): hardly soluble
